How the values were obtained:
TrxR1 = biological target: T1, TrxR1 (Homo sapiens, UniProt Q16881); assay: Inhibition of TrxR1-dependent reduction of HIV-1 gp120 (ELISA); assay type: biochemical; conditions: 100 μM compound; 1 μM Trx1 + 100 nM TrxR1 + 240 μM NADPH; control without compound 38–54%
T1 construct: purchased IMCO Corporation (Stockholm, Sweden) or Sino Biological Inc (Zoersel, Belgium)
T1 sequence (Q16881 1-499 isoform Q16881-5): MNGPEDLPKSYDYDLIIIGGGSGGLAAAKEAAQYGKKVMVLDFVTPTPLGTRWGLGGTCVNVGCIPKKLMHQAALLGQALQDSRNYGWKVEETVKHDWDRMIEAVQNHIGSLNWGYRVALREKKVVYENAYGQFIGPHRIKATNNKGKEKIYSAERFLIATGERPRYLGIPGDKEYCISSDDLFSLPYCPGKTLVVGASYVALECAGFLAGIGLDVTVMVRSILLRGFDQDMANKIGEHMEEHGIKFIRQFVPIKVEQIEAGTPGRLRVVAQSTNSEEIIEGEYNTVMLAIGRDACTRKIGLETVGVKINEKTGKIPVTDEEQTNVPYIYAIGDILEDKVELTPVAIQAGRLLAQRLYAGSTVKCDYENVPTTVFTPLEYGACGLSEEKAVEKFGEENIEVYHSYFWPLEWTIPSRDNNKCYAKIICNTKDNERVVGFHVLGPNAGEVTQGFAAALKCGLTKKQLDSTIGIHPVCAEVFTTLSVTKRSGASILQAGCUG
Description: After coating 96-well Maxi-Sorp ELISA plates (Nunc Inc, Roskilde, Denmark) with 100 μl gp120 in PBS (2 μg/ml), these were blocked with PBST (phosphate buffered saline, pH 7.4 with 0.05% Tween 20) as described before). The experiment was performed with two different set-ups for each compound, but each reaction mixture contained 1 μM Trx1 + 100 nM TrxR1 + 240 μM NADPH + 100 μM of the compounds, with auranofin as an inhibition control. In the first set-up (TrxR1 + Trx1), the reaction mixtures were pre-incubated for 15 min at 37°C in the absence of the compounds, which were added after the preincubation period. In the second set-up (TrxR1 + compounds), the reaction mixtures were exposed to the different compounds, but in the absence of Trx1, which was added after the 15 min pre-incubation period. The reaction mixtures were then added to the gp120-coated wells to allow the reduction of gp120, incubated for 15 min at 37°C and then washed four times with PBST to remove any unbound material. Subsequently, the wells were incubated with 2 μM biotin-maleimide for 30 min at room temperature, then washed and incubated with steptavidine-ALP (diluted 1:1000) at room temperature. […] The absorbance at 405 nm was measured using a microplate reader (Wallac Perkin-Elmer).

HIV = system: HIV; parameters: method as in PMID 8895167; conditions: cited from earlier work
[1] = system: HuT-78/HIV-1 and Sup-T1 cells; assay: cells; assay type: cell-based; conditions: cocultures of HuT-78/HIV-1(IIIB) and Sup-T1 cells; data not shown
Description: Persistently infected HuT-78/HIV-1 cells were thoroughly washed to eliminate free virions. Next, 1 x 10^5 HuT-78/HIV-1 cells were co-cultivated with 1 x 10^5 Sup-T1 cells in 96-well plates (200 μl/well) during 20 h at 37°C, in the presence or absence of a serial dilution of compound. Afterwards, the formation of syncytia was evaluated microscopically. The EC50 was defined as the compound concentration required to suppress syncytia formation by 50%.

[2] = biological target: T2, HIV-1 reverse transcriptase (Human immunodeficiency virus type 1 group M subtype B, UniProt P04585); parameters: method as in PMID 1376314; conditions: template poly rC.dG versus other templates ref 38; cited from earlier work
HIV-1 = assay: Infectivity assay in TZM-bl cells (luciferase); conditions: 10 μM, 40 h
Description: TZM-bl cells (1 x 10^5) were infected with diluted virus suspension (see virus expression) in a total volume of 0.2 ml DMEM medium in the presence of the compounds or an inhibitor control (nevirapine). After 40 h at 37°C, the luminescence was assayed and quantified in a Luminoskan Ascent (Thermo Labsystems, Schwerte, Germany) for luciferase activity using the OneGlo luciferase assay system (Promega, Nacka, Sweden).

[3] = biological target: T2, HIV-1 reverse transcriptase; assay: Reverse transcriptase inhibition (Lenti RT Activity kit); assay type: biochemical; conditions: 25 μM; poly-A template, overnight
Description: The ability of the compounds to inhibit the activity of viral RT was determined by a Lenti RT Activity kit (Cavidi, Uppsala, Sweden) according to the manufacturer’s instructions. A poly-A-coated plate was incubated with the reaction bufferfor up to 1 h at 33°C. Then, a mixture of the virus preparation (see virus expression) and 25 μM of the test compounds or an inhibitor control (nevirapin) were added to the RT assay mixture and incubated overnight at 33°C. The plate was washed, exposed to the provided tracer for 90 min at 33°C and washed again, before the provided substrate was added to quantify the RT reaction that took place. The plate was incubated in the dark for 30 min and subsequently read at 405 nm in a Labsystem Multiskan RC (Artisan Technology Group, Champaign, IL, USA).

| Structure (SMILES) | reduction of gp120 disulfide bonds, % of DTT (set at 100%) (TrxR1) | CD4 counts (HIV; HIV-infected patients ref 9) | plasma HIV-RNA counts (HIV; HIV-infected patients treated for rheumatoid arthritis ref 9) | inhibition of syncytium formation [1] | better inhibition efficacy with poly rC.dG than other templates [2] | inhibition of luminescence signal (HIV infection of TZM-bl) (HIV-1) | inhibition of RT polymerase activity [3] |
| --- | --- | --- | --- | --- | --- | --- | --- |
| CC(=O)OC[C@H]1O[C@@H]([S-])[C@H](OC(C)=O)[C@@H](OC(C)=O)[C@@H]1OC(C)=O.CCP(CC)CC.[Au+] [auranofin] | 6–10% | increased the CD4 counts | lowered | failed to inhibit syncytium formation | – | – | – |
| Cc1ccnc2c1NC(=O)c1cccnc1N2C1CC1 [nevirapine] | – | – | – | – | ~ 10 fold | full inhibition | pronounced, however not complete inhibitory activity |

From publication PMC4729491, “The Cellular Thioredoxin-1/Thioredoxin Reductase-1 Driven Oxidoreduction Represents a Chemotherapeutic Target for HIV-1 Entry Inhibition” (PLoS ONE, 2016)
